Assay results taken from ChEMBL document CHEMBL3039007, “Structure-based identification of OATP1B1/3 inhibitors” (Mol Pharmacol, 2013).
Several values for one entry are separate records, joined by “and”; a condition that tells them apart may be missing. Equal values may be shown once.

Tests used:
[1] = target: T1, Solute carrier organic anion transporter family member 1B1 (Homo sapiens, UniProt Q9Y6L6)
T1 sequence (Q9Y6L6 whole entry): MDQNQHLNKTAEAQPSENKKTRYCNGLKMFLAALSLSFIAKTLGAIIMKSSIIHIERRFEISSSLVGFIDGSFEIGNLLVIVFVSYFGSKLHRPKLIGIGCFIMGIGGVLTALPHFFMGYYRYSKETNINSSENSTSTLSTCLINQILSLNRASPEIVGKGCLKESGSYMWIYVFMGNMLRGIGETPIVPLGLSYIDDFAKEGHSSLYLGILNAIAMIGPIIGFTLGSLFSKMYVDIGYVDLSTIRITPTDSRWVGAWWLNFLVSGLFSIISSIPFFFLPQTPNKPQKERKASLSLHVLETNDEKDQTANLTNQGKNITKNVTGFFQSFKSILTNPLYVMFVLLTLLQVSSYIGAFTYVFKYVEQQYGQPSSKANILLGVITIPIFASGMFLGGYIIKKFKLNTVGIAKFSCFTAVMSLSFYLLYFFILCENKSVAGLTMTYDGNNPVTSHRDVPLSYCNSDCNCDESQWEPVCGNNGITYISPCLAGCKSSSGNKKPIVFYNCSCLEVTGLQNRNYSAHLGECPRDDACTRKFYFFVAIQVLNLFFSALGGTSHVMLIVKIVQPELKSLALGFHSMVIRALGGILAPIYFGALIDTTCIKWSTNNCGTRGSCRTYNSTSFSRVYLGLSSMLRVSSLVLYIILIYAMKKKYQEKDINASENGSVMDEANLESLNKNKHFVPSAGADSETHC

[2] = target: T2, Solute carrier organic anion transporter family member 1B3 (Homo sapiens, UniProt Q9NPD5); conditions: chinese hamster, cho, 10 µM
T2 sequence (Q9NPD5 whole entry): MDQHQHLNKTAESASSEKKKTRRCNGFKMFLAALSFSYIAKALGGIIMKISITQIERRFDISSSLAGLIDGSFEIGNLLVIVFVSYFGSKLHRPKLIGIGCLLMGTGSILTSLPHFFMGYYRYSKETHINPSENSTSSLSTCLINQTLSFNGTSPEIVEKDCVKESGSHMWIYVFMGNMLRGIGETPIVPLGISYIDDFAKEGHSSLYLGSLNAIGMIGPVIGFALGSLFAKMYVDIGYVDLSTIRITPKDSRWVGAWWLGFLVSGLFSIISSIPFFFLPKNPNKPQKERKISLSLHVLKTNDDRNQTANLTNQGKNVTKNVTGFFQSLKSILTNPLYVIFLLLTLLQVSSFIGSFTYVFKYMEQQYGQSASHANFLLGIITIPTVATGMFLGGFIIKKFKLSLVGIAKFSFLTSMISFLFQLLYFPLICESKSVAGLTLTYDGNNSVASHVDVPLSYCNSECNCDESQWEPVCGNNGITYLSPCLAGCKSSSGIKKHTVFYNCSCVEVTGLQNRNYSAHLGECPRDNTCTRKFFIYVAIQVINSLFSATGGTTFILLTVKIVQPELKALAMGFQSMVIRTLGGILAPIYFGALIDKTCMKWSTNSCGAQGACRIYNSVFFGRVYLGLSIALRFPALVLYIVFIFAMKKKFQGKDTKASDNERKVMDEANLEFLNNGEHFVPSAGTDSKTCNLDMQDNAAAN

[3] = target: T2, Solute carrier organic anion transporter family member 1B3
[4] = target: T1, Solute carrier organic anion transporter family member 1B1; conditions: chinese hamster, cho, 10 µM

SMILES | Ki [1] | residual activity [2] [%] | Ki [3] | residual activity [4] [%]
C=C1[C@@H]2CC[C@@]3(C)[C@H](c4ccoc4)OC(=O)C[C@]13O[C@H]1C[C@H](O)C(C)(C)[C@H](CC(=O)OC)[C@]12C | 0.68 µM | 17.5 | 3.06 µM | 16
CCCCCC[C@H]1C(=O)O[C@H](C)[C@H](NC(=O)c2cccc(NC=O)c2O)C(=O)O[C@@H](C)[C@@H]1OC(=O)CC(C)C [ANTIMYCIN A] | 2.2 µM | 28.62 | 3.82 µM | 31.93
CC[C@@H](C(=O)[C@@H](C)[C@@H](O)[C@H](C)[C@@H]1O[C@@H]([C@@H](CC)C(=O)[O-])CC[C@@H]1C)[C@H]1O[C@]2(C=C[C@@H](O)[C@]3(CC[C@@](C)([C@H]4CC[C@](O)(CC)[C@H](C)O4)O3)O2)[C@H](C)C[C@@H]1C.[Na+] [SALINOMYCIN SODIUM] | 2.03 µM | 16.99 | 3.31 µM | 21.72
CC[C@H]1/C=C/C=C/C[C@@H](C)[C@H](O)[C@@](C)(O)C(=O)[C@@H](C)[C@H](O)[C@@H](C)C(=O)[C@@H](C)[C@H](O)[C@@H](C)/C=C/C(=O)O[C@@H]2[C@H](C)[C@H](CC1)O[C@]1(CC[C@H](C)[C@H](C[C@@H](C)O)O1)[C@H]2C [OLIGOMYCIN] | 0.25 µM | 3.002 | 0.44 µM | 11.28
CC(=O)O[C@@H]1CC2C(C)(C)[C@H](O)C[C@H](O)[C@@]2(C)C2CC[C@]3(C)C(=CC(=O)O[C@@H]3c3ccoc3)[C@]21C (stereo partly specified) [1,3-DIDEACETYLDEOXYKHIVORIN] | 2.96 µM | 50.83 | 6.59 µM | 31.1
CCCCCN(CCCCC)C(=O)C(CCC(=O)[O-])NC(=O)c1ccc(Cl)c(Cl)c1.[Na+] (stereo unspecified) [LORGLUMIDE SODIUM] | 2.01 µM | 32.85 | 2.71 µM | 16.54
CC(=O)O[C@@H]1C[C@H]2C(C)(C)[C@@H](O)CC[C@]2(C)[C@H]2CC[C@]3(C)C(=CC(=O)O[C@H]3c3ccoc3)[C@@]21C | 0.93 µM and 1.49 µM | 25.89 | 2.5 µM and 2.39 µM | 31.46
CC(=O)O[C@H]1CC[C@]2(C)C(C[C@@H](OC(C)=O)[C@]3(C)C4=CC(=O)O[C@H](c5ccoc5)[C@@]4(C)CCC23)C1(C)C (stereo partly drawn) [3-DEOXO-3beta-ACETOXYDEOXYDIHYDROGEDUNIN] | 0.41 µM | 20.65 | 2.67 µM | 14.97
COc1nc(NC(C)C)nc(NC(C)C)n1 [PROMETON] | – | 102.5 | – | 114.4
CN(C)CCN(Cc1ccccc1)c1ccccn1.O=C(O)CC(O)(CC(=O)O)C(=O)O [TRIPELENNAMINE CITRATE] | – | 93.75 | – | 81.25
CC[n+]1c(-c2ccccc2)c2cc(N)ccc2c2ccc(N)cc21.[Br-] [HOMIDIUM BROMIDE] | – | 100.7 | – | 98.94
CCCCCC(=O)O[C@]1(C(C)=O)CC[C@H]2[C@@H]3CCC4=CC(=O)CC[C@]4(C)[C@H]3CC[C@@]21C [HYDROXYPROGESTERONE CAPROATE] | – | 55.76 | – | 40.59
Nc1ccc(S(=O)(=O)Nc2ccccn2)cc1 [SULFAPYRIDINE] | – | 105.2 | – | 73.46
CCN1C[C@]2(COC)[C@H](O)C[C@H](OC)[C@@]34[C@@H]5C[C@@]6(O)[C@H](OC(=O)c7ccccc7)[C@@H]5[C@@](OC(C)=O)([C@@H]([C@H](OC)[C@H]23)[C@@H]14)[C@@H](O)[C@@H]6OC [ACONITINE] | – | 85.31 | – | 65.77
CC(=O)Oc1ccc(Cl)c2cccnc12 [CHLOROACETOXYQUINOLINE] | – | 92.5 | – | 90.22
CC[C@H](C)[C@H](N)C(=O)N1CCC[C@H]1C(=O)N[C@H](C(=O)O)[C@@H](C)CC [DIPROTIN A] | – | 116.8 | – | 108.3
N[C@@H](Cc1c[nH]c2ccccc12)C(=O)O [TRYPTOPHAN] | – | 97.09 | – | 93.19
COC(=O)C[C@H]1C(C)(C)C(=O)[C@@H]2CC3C4=CC(=O)O[C@@H](c5ccoc5)[C@]4(C)CC[C@@H]3[C@@]1(C)C2=O (stereo partly specified) [CARAPIN] | – | 66.49 | – | 20.92
O=C(O)c1ccc(S(=O)(=O)N(Cl)Cl)cc1 [HALAZONE] | – | 84.35 | – | 97.95
NC(=O)c1ccc[n+]([C@@H]2O[C@H](COP(=O)([O-])OP(=O)(O)OC[C@H]3O[C@@H](n4cnc5c(N)ncnc54)[C@H](OP(=O)(O)O)[C@@H]3O)[C@@H](O)[C@H]2O)c1 [SODIUM beta-NICOTINAMIDE ADENINE DINUCLEOTIDE PHOSPHATE] | – | 105.1 | – | 190

SMILES | Ki [1] | residual activity [2] [%] | Ki [3] | residual activity [4] [%]
CC(C)[C@@H]1CC[C@@H](C)CC1=O [MENTHONE] | – | 100.2 | – | 96.98
Oc1ccc(Cl)cc1 [PARACHLOROPHENOL] | – | 100.4 | – | 89.66
CC(=O)Nc1ccc(O)cc1 [ACETAMINOPHEN] | – | 96.68 | – | 99.98
CC(C)(C)C(=O)C(Oc1ccc(Cl)cc1)n1cncn1 (stereo unspecified) [TRIADIMEFON] | – | 87.3 | – | 75.79
COc1cc2c(c(OC)c1OC)-c1ccc(OC)c(=O)cc1[C@@H](NC(C)=O)CC2 [COLCHICINE] | – | 101 | – | 75.12
C=C[C@H]1C[N@@]2CC[C@H]1C[C@@H]2[C@@H](O)c1ccnc2ccccc12 [CINCHONINE] | – | 105.3 | – | 122.3
Cl.NCC(=O)c1ccccc1 [PHENACYLAMINE HYDROCHLORIDE] | – | 95.9 | – | 77.38
CC(=O)O[C@H]1CC[C@@]2(C)C(=CC[C@H]3[C@@H]4CC[C@H]([C@H](C)CCCC(C)C)[C@@]4(C)CC[C@@H]32)C1 | – | 102.8 | – | 89.8
O=c1c(-c2ccc(O)cc2)coc2cc(O)ccc12 [DAIDZEIN] | – | 103.8 | – | 139.3
COc1ccc2c(c1)OCc1c-2oc2cc(OC)ccc12 [DEHYDROVARIABILIN] | – | 89.07 | – | 136.9
Cc1cc(=O)[nH]c(=S)[nH]1 [METHYLTHIOURACIL] | – | 80.5 | – | 83.19
NCCc1ccc(O)cc1 [TYRAMINE] | – | 85.38 | – | 59.9
CO/N=C(\C(=O)N[C@@H]1C(=O)N2C(C(=O)OCOC(=O)C(C)(C)C)=C(/C=C\c3scnc3C)CS[C@H]12)c1csc(N)n1 [CEFDITOREN PIVOXIL] | – | 82.75 | – | 64.03
CC1=C(CC(=O)O)c2cc(F)ccc2/C1=C\c1ccc([S+](C)[O-])cc1 (stereo unspecified) | – | 88.55 | – | 240.6
CNCCCN1c2ccccc2CCc2ccccc21.Cl [DESIPRAMINE HYDROCHLORIDE] | – | 96.51 | – | 55.55
CN1C(=O)CCS(=O)(=O)C1c1ccc(Cl)cc1 (stereo unspecified) [CHLORMEZANONE] | – | 92 | – | 97.47
NC(=O)C[S+]([O-])C(c1ccccc1)c1ccccc1 (stereo unspecified) [MODAFINIL] | – | 95.61 | – | 113.7
Cc1cc(=O)c2c(O)cc(O)c(C)c2o1 [ISOEUGENITOL] | – | 101 | – | 129.2
CSCC[C@H](N)C(=O)N[C@@H](CC(C)C)C(=O)N[C@@H](Cc1ccccc1)C(=O)OC(C)=O | – | 94.57 | – | 102.4
CCCCCCCCCCCCCCCCCCOCC(O)CO (stereo unspecified) [BATILOL] | – | 108.3 | – | 92.94
